# Data: PubChem BioAssay (NCI)
#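 Method: 48-hour compound exposure of cells in 96-well plates, five concentrations, linear interpolation of endpoints. TGI: concentration producing complete growth inhibition.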
# System: A549 NSCLC
# Test: inhibition of tumour cell growth, NCI panel, 48 h
row,Compound,TGI
1,CC(C)c1ccccc1NC(=O)CCC(=O)NN,> 100 µM
2,NC(N)=N/N=C(/CCN1CCCC1)CC(c1ccccc1)c1c(O)c2ccccc2oc1=O (stereo unspecified),> 100 µM
3,Clc1ccc(OCc2nnc3n2N=C(c2ccccc2)CS3)cc1,35.1 µM
4,CC(=O)N(C(C)=O)c1c(N)n(C)c(=O)[nH]c1=O,> 100 µM

# System: LOX IMVI melanoma
# Test: inhibition of tumour cell growth, NCI panel, 48 h
row,Compound,TGI
1,COC(=O)C1CC2c3c(c4ccccc4n3C)CC(C1=O)N2C (stereo unspecified),> 100 µM
2,CC(C)c1ccccc1NC(=O)CCC(=O)NN,> 100 µM
3,NC(N)=N/N=C(/CCN1CCCC1)CC(c1ccccc1)c1c(O)c2ccccc2oc1=O (stereo unspecified),> 100 µM
4,Clc1ccc(OCc2nnc3n2N=C(c2ccccc2)CS3)cc1,30.8 µM
5,CC(=O)N(C(C)=O)c1c(N)n(C)c(=O)[nH]c1=O,> 100 µM

# System: DLD-1 colon
# Test: inhibition of tumour cell growth, NCI panel, 48 h
row,Compound,TGI
1,COC(=O)C1CC2c3c(c4ccccc4n3C)CC(C1=O)N2C (stereo unspecified),> 100 µM
2,CC(C)c1ccccc1NC(=O)CCC(=O)NN,> 100 µM
3,NC(N)=N/N=C(/CCN1CCCC1)CC(c1ccccc1)c1c(O)c2ccccc2oc1=O (stereo unspecified),> 100 µM
4,Clc1ccc(OCc2nnc3n2N=C(c2ccccc2)CS3)cc1,44 µM
5,CC(=O)N(C(C)=O)c1c(N)n(C)c(=O)[nH]c1=O,> 100 µM

# System: RXF-631 renal
# Test: inhibition of tumour cell growth, NCI panel, 48 h
row,Compound,TGI
1,COC(=O)C1CC2c3c(c4ccccc4n3C)CC(C1=O)N2C (stereo unspecified),> 100 µM
2,CC(C)c1ccccc1NC(=O)CCC(=O)NN,> 100 µM
3,NC(N)=N/N=C(/CCN1CCCC1)CC(c1ccccc1)c1c(O)c2ccccc2oc1=O (stereo unspecified),> 100 µM
4,Clc1ccc(OCc2nnc3n2N=C(c2ccccc2)CS3)cc1,31.1 µM
5,CC(=O)N(C(C)=O)c1c(N)n(C)c(=O)[nH]c1=O,> 100 µM

# System: RPMI-8226 leukemia
# Test: inhibition of tumour cell growth, NCI panel, 48 h
row,Compound,TGI
1,CC(C)c1ccccc1NC(=O)CCC(=O)NN,> 100 µM
2,NC(N)=N/N=C(/CCN1CCCC1)CC(c1ccccc1)c1c(O)c2ccccc2oc1=O (stereo unspecified),> 100 µM
3,Clc1ccc(OCc2nnc3n2N=C(c2ccccc2)CS3)cc1,32.7 µM
4,CC(=O)N(C(C)=O)c1c(N)n(C)c(=O)[nH]c1=O,> 100 µM

# System: KM12 colon
# Test: inhibition of tumour cell growth, NCI panel, 48 h
row,Compound,TGI
1,COC(=O)C1CC2c3c(c4ccccc4n3C)CC(C1=O)N2C (stereo unspecified),> 100 µM
2,CC(C)c1ccccc1NC(=O)CCC(=O)NN,> 100 µM
3,Clc1ccc(OCc2nnc3n2N=C(c2ccccc2)CS3)cc1,31.6 µM
4,CC(=O)N(C(C)=O)c1c(N)n(C)c(=O)[nH]c1=O,> 100 µM

# System: MOLT-4 leukemia
# Test: inhibition of tumour cell growth, NCI panel, 48 h
row,Compound,TGI
1,COC(=O)C1CC2c3c(c4ccccc4n3C)CC(C1=O)N2C (stereo unspecified),> 100 µM
2,CC(C)c1ccccc1NC(=O)CCC(=O)NN,> 100 µM
3,Clc1ccc(OCc2nnc3n2N=C(c2ccccc2)CS3)cc1,62.5 µM
4,CC(=O)N(C(C)=O)c1c(N)n(C)c(=O)[nH]c1=O,> 100 µM

# System: SF-295 CNS
# Test: inhibition of tumour cell growth, NCI panel, 48 h
row,Compound,TGI
1,COC(=O)C1CC2c3c(c4ccccc4n3C)CC(C1=O)N2C (stereo unspecified),> 100 µM
2,CC(C)c1ccccc1NC(=O)CCC(=O)NN,> 100 µM
3,NC(N)=N/N=C(/CCN1CCCC1)CC(c1ccccc1)c1c(O)c2ccccc2oc1=O (stereo unspecified),> 100 µM
4,Clc1ccc(OCc2nnc3n2N=C(c2ccccc2)CS3)cc1,36.7 µM
5,CC(=O)N(C(C)=O)c1c(N)n(C)c(=O)[nH]c1=O,> 100 µM

# System: IGROV1 ovarian
# Test: inhibition of tumour cell growth, NCI panel, 48 h
row,Compound,TGI
1,COC(=O)C1CC2c3c(c4ccccc4n3C)CC(C1=O)N2C (stereo unspecified),> 100 µM
2,CC(C)c1ccccc1NC(=O)CCC(=O)NN,> 100 µM
3,NC(N)=N/N=C(/CCN1CCCC1)CC(c1ccccc1)c1c(O)c2ccccc2oc1=O (stereo unspecified),> 100 µM
4,Clc1ccc(OCc2nnc3n2N=C(c2ccccc2)CS3)cc1,23.5 µM
5,CC(=O)N(C(C)=O)c1c(N)n(C)c(=O)[nH]c1=O,> 100 µM

# System: 786-0 renal
# Test: inhibition of tumour cell growth, NCI panel, 48 h
row,Compound,TGI
1,COC(=O)C1CC2c3c(c4ccccc4n3C)CC(C1=O)N2C (stereo unspecified),> 100 µM
2,CC(C)c1ccccc1NC(=O)CCC(=O)NN,> 100 µM
3,NC(N)=N/N=C(/CCN1CCCC1)CC(c1ccccc1)c1c(O)c2ccccc2oc1=O (stereo unspecified),> 100 µM
4,Clc1ccc(OCc2nnc3n2N=C(c2ccccc2)CS3)cc1,30.2 µM
5,CC(=O)N(C(C)=O)c1c(N)n(C)c(=O)[nH]c1=O,> 100 µM

# System: HOP-18 NSCLC
# Test: inhibition of tumour cell growth, NCI panel, 48 h
row,Compound,TGI
1,COC(=O)C1CC2c3c(c4ccccc4n3C)CC(C1=O)N2C (stereo unspecified),> 100 µM

# System: CCRF-CEM leukemia
# Test: inhibition of tumour cell growth, NCI panel, 48 h
row,Compound,TGI
1,COC(=O)C1CC2c3c(c4ccccc4n3C)CC(C1=O)N2C (stereo unspecified),> 100 µM
2,CC(C)c1ccccc1NC(=O)CCC(=O)NN,> 100 µM
3,CC(=O)N(C(C)=O)c1c(N)n(C)c(=O)[nH]c1=O,> 100 µM

# System: SNB-75 CNS
# Test: inhibition of tumour cell growth, NCI panel, 48 h
row,Compound,TGI
1,COC(=O)C1CC2c3c(c4ccccc4n3C)CC(C1=O)N2C (stereo unspecified),> 100 µM
2,CC(C)c1ccccc1NC(=O)CCC(=O)NN,> 100 µM
3,NC(N)=N/N=C(/CCN1CCCC1)CC(c1ccccc1)c1c(O)c2ccccc2oc1=O (stereo unspecified),> 100 µM
4,Clc1ccc(OCc2nnc3n2N=C(c2ccccc2)CS3)cc1,85.7 µM

# System: A498 renal
# Test: inhibition of tumour cell growth, NCI panel, 48 h
row,Compound,TGI
1,COC(=O)C1CC2c3c(c4ccccc4n3C)CC(C1=O)N2C (stereo unspecified),> 100 µM
2,CC(=O)N(C(C)=O)c1c(N)n(C)c(=O)[nH]c1=O,> 100 µM

# System: RXF 393 renal
# Test: inhibition of tumour cell growth, NCI panel, 48 h
row,Compound,TGI
1,NC(N)=N/N=C(/CCN1CCCC1)CC(c1ccccc1)c1c(O)c2ccccc2oc1=O (stereo unspecified),> 100 µM
2,CC(=O)N(C(C)=O)c1c(N)n(C)c(=O)[nH]c1=O,> 100 µM

# System: DMS 114 small cell lung
# Test: inhibition of tumour cell growth, NCI panel, 48 h
row,Compound,TGI
1,COC(=O)C1CC2c3c(c4ccccc4n3C)CC(C1=O)N2C (stereo unspecified),60.7 µM
2,NC(N)=N/N=C(/CCN1CCCC1)CC(c1ccccc1)c1c(O)c2ccccc2oc1=O (stereo unspecified),> 100 µM
3,CC(=O)N(C(C)=O)c1c(N)n(C)c(=O)[nH]c1=O,> 100 µM
